From the supplement of paper PMC10307832

Key:
Test in all cases: relative viability (nuclei count vs DMSO), 5 days (fraction); higher = more cells survive
Ruxolitinib + Alpelisib = compound: N#CC[C@H](C1CCCC1)n1cc(-c2ncnc3[nH]ccc23)cn1 [Ruxolitinib] + Cc1nc(NC(=O)N2CCC[C@H]2C(N)=O)sc1-c1ccnc(C(C)(C)C(F)(F)F)c1 [Alpelisib] (partner 2 µM)
Method in brief: (§1)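 Lung cancer cell lines in 1536-well plates were dosed by pin tool the day after seeding, either with one drug alone or with a fixed anchor-drug dose plus five library-drug doses (not always all listed) in √10 steps. After 5 days, cells were fixed and their nuclei stained in one step (final 0.05% Triton X-100, 1% formaldehyde, 1 ug/ml Hoechst), then counted on 4× images. Relative viability is the nuclei count in treated wells divided by that in vehicle wells. Values are medians of duplicate plates.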

Ruxolitinib + Crizotinib = compound: N#CC[C@H](C1CCCC1)n1cc(-c2ncnc3[nH]ccc23)cn1 [Ruxolitinib] + C[C@@H](Oc1cc(-c2cnn(C3CCNCC3)c2)cnc1N)c1c(Cl)ccc(F)c1Cl [Crizotinib] (partner 1 µM)
Method in brief: as §1

Ruxolitinib + OSI-027 = compound: N#CC[C@H](C1CCCC1)n1cc(-c2ncnc3[nH]ccc23)cn1 [Ruxolitinib] + COc1cccc2cc(-c3nc([C@H]4CC[C@H](C(=O)O)CC4)n4ncnc(N)c34)[nH]c12 [OSI-027] (partner 0.5 µM)
Method in brief: as §1

Ruxolitinib + Foretinib = compound: N#CC[C@H](C1CCCC1)n1cc(-c2ncnc3[nH]ccc23)cn1 [Ruxolitinib] + COc1cc2c(Oc3ccc(NC(=O)C4(C(=O)Nc5ccc(F)cc5)CC4)cc3F)ccnc2cc1OCCCN1CCOCC1 [Foretinib] (partner 0.25 µM)
Method in brief: as §1

Cell Line | relative viability (Ruxolitinib + Alpelisib; first compound 0.08 µM) | relative viability (Ruxolitinib + Alpelisib; first compound 0.253 µM) | relative viability (Ruxolitinib + Alpelisib; first compound 0.8 µM) | relative viability (Ruxolitinib + Alpelisib; first compound 2.53 µM) | relative viability (Ruxolitinib + Alpelisib; first compound 8 µM) | relative viability (Ruxolitinib + Crizotinib; first compound 0.08 µM) | relative viability (Ruxolitinib + Crizotinib; first compound 0.253 µM) | relative viability (Ruxolitinib + Crizotinib; first compound 0.8 µM) | relative viability (Ruxolitinib + Crizotinib; first compound 2.53 µM) | relative viability (Ruxolitinib + Crizotinib; first compound 8 µM) | relative viability (Ruxolitinib + OSI-027; first compound 0.08 µM) | relative viability (Ruxolitinib + OSI-027; first compound 0.253 µM) | relative viability (Ruxolitinib + OSI-027; first compound 0.8 µM) | relative viability (Ruxolitinib + OSI-027; first compound 2.53 µM) | relative viability (Ruxolitinib + OSI-027; first compound 8 µM) | relative viability (Ruxolitinib + Foretinib; first compound 0.08 µM) | relative viability (Ruxolitinib + Foretinib; first compound 0.8 µM) | relative viability (Ruxolitinib + Foretinib; first compound 2.53 µM) | relative viability (Ruxolitinib + Foretinib; first compound 8 µM) | relative viability (Ruxolitinib + Foretinib; first compound 0.253 µM)
201T | 1.11 | 1.11 | 1.27 | 1.39 | 1.33 | 1.02 | 1.11 | 1.19 | 1.29 | 1.18 | 0.768 | 0.722 | 0.809 | 0.919 | 0.905 | 1.11 | 1.43 | 1.1 | 1.26 | 
A549 | 0.775 | 0.708 | 0.841 | 0.574 | 0.495 | 0.782 | 0.891 | 0.855 | 0.692 | 0.293 |  |  |  |  |  | 0.926 | 1.08 | 0.834 | 0.632 | 0.926
A-427 | 1.09 | 1.03 | 1.07 | 1.06 | 1.03 | 0.843 | 1.07 | 0.867 | 0.66 | 0.789 | 0.434 | 0.465 | 0.566 | 0.364 | 0.439 | 0.992 | 1.06 | 0.918 | 0.988 | 1.1
ABC-1 | 1.08 | 1.09 | 1.17 | 1.03 | 0.855 | 1.12 | 1.02 | 1.22 | 0.992 | 1.26 |  | 0.379 | 0.83 | 0.455 | 0.539 |  | 1.33 | 0.975 | 0.99 | 1.35
BEN | 0.944 | 0.965 | 1.16 | 0.956 | 1.08 | 0.832 | 1.01 | 1.07 | 0.735 | 0.95 | 0.336 | 0.299 | 0.304 | 0.266 | 0.267 | 0.773 | 0.729 | 0.62 | 0.612 | 0.634
CAL-12T | 1.26 | 1.31 | 1.25 | 1.05 | 0.78 | 0.914 | 0.586 | 0.81 | 0.481 | 0.576 | 0.598 | 0.623 | 0.812 | 0.524 | 0.442 | 1.19 | 1.17 | 0.899 | 0.777 | 1.15
COR-L23 | 0.854 | 0.827 | 0.821 | 0.731 | 0.502 | 0.717 | 0.681 | 0.733 | 0.7 | 0.433 | 0.806 | 0.743 | 0.868 | 0.729 | 0.645 | 0.944 | 1.07 | 1 | 0.772 | 0.988
COR-L 105 | 0.771 | 1.03 | 0.84 | 0.86 | 0.718 | 0.789 | 0.634 | 0.853 | 0.444 | 0.625 | 0.535 | 0.536 | 0.705 | 0.667 | 0.531 | 0.927 | 0.994 | 0.718 | 0.853 | 1.17
Calu-6 | 1.02 | 1.03 | 1.09 | 0.851 | 0.673 | 0.797 | 0.676 | 1 | 0.711 | 0.399 |  |  |  |  |  | 0.936 | 0.99 | 0.81 | 0.523 | 0.884
ChaGo-K-1 |  |  |  |  |  |  | 1.13 | 1.22 | 0.963 | 0.997 | 0.698 | 0.436 | 0.544 | 0.524 | 0.545 | 0.956 | 0.898 | 0.772 | 0.823 | 0.934
EBC-1 | 0.833 | 0.889 | 0.997 | 0.876 | 0.777 | 0.191 |  | 0.21 | 0.204 | 0.202 |  |  |  |  |  | 0.0875 | 0.116 | 0.115 | 0.0903 | 0.0905
EKVX | 0.769 | 0.862 | 1 | 0.92 | 0.832 | 0.894 | 0.983 | 1.07 | 0.757 | 0.798 | 0.661 | 0.641 | 0.486 | 0.632 | 0.733 | 0.234 | 0.768 | 0.795 | 0.311 | 0.698
EMC-BAC-2 | 0.725 | 0.72 | 0.742 | 0.637 | 0.568 | 0.801 | 0.782 | 0.85 | 0.68 | 0.445 | 0.391 | 0.344 | 0.358 | 0.359 | 0.224 | 1.06 | 1.03 | 0.819 | 0.824 | 0.951
EPLC-272H | 0.841 | 0.903 | 1.07 | 1.06 | 1.01 | 0.925 | 0.945 | 1.2 | 0.729 | 0.863 | 0.275 | 0.282 | 0.291 | 0.267 | 0.272 | 0.645 | 0.79 | 0.573 | 0.472 | 0.635
